Several values for one entry are separate records, joined by “and”; a condition that tells them apart may be missing. Identical values can stand only once. Entries after “also recorded” stand apart in the source; their conditions may differ.
Experiments:
[1] = system: HIV-1(IIIB); test: microbe, parasite or virus in culture; assay type: cell-based; conditions: CEM cells
Procedure: (§1) To study the antiviral activity in transformed cells, CEM cells were suspended in fresh culture medium and infected with HIV-1(IIIB) or HIV-2(ROD) at 100 x CCID50 (cell culture infective dose 50%) per ml of cell suspension. Infected cell suspension (100 μl; 3 x 10^5 cells/ml) was transferred to a 96-well microplate, mixed with 100 μl of the appropriate dilutions of compounds, and further incubated at 37°C. After 4 days, giant cell formation was recorded microscopically and the number of giant cells was estimated microscopically as percentage of the number of giant cells present in the non-treated virus-infected cell cultures.

[2] = system: HIV-2(ROD); test: Inhibition of HIV-2(ROD)-induced giant cell formation in CEM cell cultures; assay type: cell-based; conditions: CEM cells
Procedure: as §1

[3] = system: PHA-stimulated PBMCs; test: Toxicity in PHA-stimulated PBMCs (trypan blue cell counting); assay type: cell-based, human; conditions: proliferation of seven-day drug-exposed PHA-stimulated PBMCs; mean ± SD; read-out: IC50 PBMC
Procedure: A similar experiment was performed to study the toxicity of the compounds in fresh, PHA-stimulated, PBMCs. Mock-infected PBMCs (2 x 10^5 cells) were exposed to a serial dilution of compound, in a total volume of 200 μl. Cells were passaged after 4 days. Cell survival and proliferation was assessed at day 7 using trypan blue-based cell counting with the Countess Automated Cell Counter (Invitrogen, Ghent, Belgium). The IC50 was defined as the concentration of the compound that inhibited cell proliferation by 50%.

[4] = system: HIV-1(IIIB); assay type: cell-based; conditions: MT-4 cells, p24 ELISA at 31 h; TE-2 at 50 μM
Procedure: Two time-of-drug-addition (TOA) experiments were performed and adopted from previously reported methods. Briefly, MT-4 cells were infected with HIV-1(IIIB) at a multiplicity of infection of 0.5. Following a 1 hour adsorption period, cells were washed, distributed in a 96-well tray at 100,000 cells per 200 μl per well and incubated at 37°C.
For the first experiment, test compounds were added to the infected cell cultures at different time points (i.e. 0, 1, 2, 3, 4, 5, 6, 7, 8, 9, 24, and 25 h) after the start of infection.
In a second experiment, the resolution of the assay was increased by evaluating early time points in more detail. Therefore, the test compounds were added to the infected cell cultures at the following time points after the start of infection: 0, 15, 30, 45, 100 and 180 min; and 24 as well as 25 h.
Product added at time points 0, 15, 30 and 45 min was present at the start of the viral infection and washed away after 1 hour. After washing, fresh product was added to maintain viral suppression throughout the remaining of the experiment.
HIV-1 production was determined at 31 h post infection via a p24 ELISA (Perkin Elmer, Brussels, Belgium).

[5] = target: T1, TrxR1 (Homo sapiens, UniProt Q16881); test: SPR binding to immobilized TrxR1; conditions: 10, 50 and 250 μM
T1 construct: purchased IMCO Corporation (Stockholm, Sweden) or Sino Biological Inc (Zoersel, Belgium)
T1 sequence (Q16881 1-499 isoform Q16881-5): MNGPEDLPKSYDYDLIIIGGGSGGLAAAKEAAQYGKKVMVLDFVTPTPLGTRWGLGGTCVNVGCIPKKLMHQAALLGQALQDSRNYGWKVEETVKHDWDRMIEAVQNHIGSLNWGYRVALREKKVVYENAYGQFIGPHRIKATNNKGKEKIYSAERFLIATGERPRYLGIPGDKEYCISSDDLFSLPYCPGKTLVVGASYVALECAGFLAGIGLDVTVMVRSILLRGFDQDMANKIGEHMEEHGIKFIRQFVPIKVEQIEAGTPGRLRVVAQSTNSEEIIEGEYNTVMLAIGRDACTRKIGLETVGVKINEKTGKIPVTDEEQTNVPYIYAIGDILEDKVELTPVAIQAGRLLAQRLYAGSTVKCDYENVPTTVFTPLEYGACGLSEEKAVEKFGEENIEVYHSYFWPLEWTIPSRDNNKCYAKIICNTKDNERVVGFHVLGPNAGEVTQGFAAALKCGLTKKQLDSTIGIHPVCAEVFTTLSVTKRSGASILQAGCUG
Procedure: (§2) SPR analysis was performed to evaluate binding of TE-2 to immobilized recombinant TrxR1, PDI, gp120, gp41 and sCD4. Therefore, these ligands were immobilized on a CM5 sensor chip (GE Healthcare, Uppsala, Sweden) using standard amine coupling in the presence of 10 mM sodium acetate, pH 5. A high ligand-density chip was created, with ligand densities of 6759, 5004, 4119, 2900 and 5569 RU, respectively. A reference flow cell was used to control for non-specific binding and refractive index changes. All interactions were studied at 25°C on a Biacore T200 instrument (GE Healthcare, Uppsala, Sweden) in HBS-P (10 mM HEPES, 150 mM NaCl and 0.05% surfactant P20; pH 7.4) supplemented with 10 mM CaCl2 and 5% DMSO. TE-2 was tested at the concentrations 10, 50 and 250 μM. Samples were injected during 2 minutes at a flow rate of 30 μl/min, followed by a dissociation phase of 2 minutes. Each injection was followed by a regeneration step with 50 mM NaOH (injected during 10 seconds at a flow rate of 100 μl/min).

[6] = target: PDI (Homo sapiens, UniProt P07237); test: SPR binding to immobilized PDI; conditions: 10, 50 and 250 μM
Procedure: as §2

[7] = system: HuT-78/HIV-1 and Sup-T1 cells; test: cells; assay type: cell-based; conditions: cocultures of HuT-78/HIV-1 and Sup-T1 cells, ~24 hours; read-out: IC50 inhibition of syncytia formation
Procedure: Persistently infected HuT-78/HIV-1 cells were thoroughly washed to eliminate free virions. Next, 1 x 10^5 HuT-78/HIV-1 cells were co-cultivated with 1 x 10^5 Sup-T1 cells in 96-well plates (200 μl/well) during 20 h at 37°C, in the presence or absence of a serial dilution of compound. Afterwards, the formation of syncytia was evaluated microscopically. The EC50 was defined as the compound concentration required to suppress syncytia formation by 50%.

[8] = system: HIV-1; test: Infectivity (TZM-bl) of virus particles produced by ACH-2 cells in presence of compound; assay type: cell-based; conditions: ACH-2 cultures exposed to compound 3 days; supernatant 1:100 titrated on TZM-bl
Procedure: To measure the infectivity of particles produced in the presence of the compounds, washed persistently HIV-1-infected ACH-2 cells (1 x 10^6 cells/ml) were cultured with 100 nM PMA in the presence of the indicated concentration of compounds. After 3 days, the p24 content of the clarified supernatant (see virus expression) was measured. The cell supernatant was then used for an infectivity test (see infectivity assay) without the further addition of any compound to the cultures. The final dilution of the ACH-2 supernatant in the infectivity test was 1:100. A control experiment was performed, in which virus particles produced without the addition of compound, were used for the infectivity test. Additionally, the same amount of compound that could have been carried over with the virus containing supernatant in the original experiment was added to the infectivity test (final concentration: 1/100 of the indicated amount in the viral growth culture).

Chain of PDI (P07237 18-508, species assumed): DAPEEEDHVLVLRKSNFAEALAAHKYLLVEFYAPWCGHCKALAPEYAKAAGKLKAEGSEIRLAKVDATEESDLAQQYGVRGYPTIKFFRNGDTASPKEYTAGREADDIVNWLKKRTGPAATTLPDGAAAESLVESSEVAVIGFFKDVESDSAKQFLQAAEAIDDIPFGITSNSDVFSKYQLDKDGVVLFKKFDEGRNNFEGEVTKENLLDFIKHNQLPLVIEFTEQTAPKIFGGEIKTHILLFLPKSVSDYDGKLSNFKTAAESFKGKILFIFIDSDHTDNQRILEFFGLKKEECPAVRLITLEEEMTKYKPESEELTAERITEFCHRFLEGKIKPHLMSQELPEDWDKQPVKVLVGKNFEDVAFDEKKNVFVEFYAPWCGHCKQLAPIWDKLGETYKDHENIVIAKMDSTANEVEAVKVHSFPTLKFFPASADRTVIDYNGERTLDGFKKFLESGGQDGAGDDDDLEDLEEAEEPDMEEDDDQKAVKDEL

6-(butyltelluro)-6-deoxy-β-cyclodextrin [TE-2]
Ratio IC50/EC50 HIV-1 (CEM) [1]: 227 | EC50 ([1]; concentration required to protect against cytopathogenicity of HIV by 50%, mean ± SD, read-out: EC50 HIV-1 (IIIB)): 1100 ± 250 nM | antiviral selectivity SI = IC50/EC50 ([1]; over HIV-1 and HIV-2): 167–227 and > 100 | Ratio IC50/EC50 HIV-2 (CEM) [2]: 167 | EC50 ([2]; concentration required to protect against cytopathogenicity of HIV by 50%, mean ± SD, read-out: EC50 HIV-2 (ROD)): 1500 ± 520 nM | IC50 [3]: 54000 ± 16000 nM | time-of-drug-addition profile [4]: mostly lost when added at t = 1 h after infection; also recorded: profile resembling that of the fusion inhibitor enfuvirtide (T-20) | SPR binding to TrxR1 [5]: able to specifically bind TrxR1 | SPR binding to PDI [6]: dose-dependently interact with PDI | IC50 [7]: > 250000 nM | infectivity of virus particles produced in presence of compound (normalized for equal p24) [8]: substantially less infectious virus particles
